Assay results taken from publication PMC6194350, “Catalytic Performance of a Class III Old Yellow Enzyme and Its Cysteine Variants” (Frontiers in Microbiology, 2018).
One block for each compound: values may come before it.

Assays:
Format in all cases: biochemical
OYERo2a (WT) [1] = target: T1, OYERo2a (WT) (Rhodococcus opacus, UniProt A0A1B1KA86); test: residual activity after pre-incubation; details: covalent (Cys25); 10 mM, 120 min, 50 mM phosphate pH 7.1, 4°C, dark, oxidized enzyme
T1 construct: gene O4328_33150; FMN 1:1; dimer by gel filtration; single Cys25

OYERo2a (WT) [2] = target: T1, OYERo2a (WT); test: steady-state kinetics, NADPH consumption at […] nm; details: 50 mM phosphate pH 7.1, 25°C
OYERo2a (WT) [3] = target: T2, OYERo2a (WT) (Rhodococcus opacus, UniProt A0A1B1KA86, C25A, form not given); test: steady-state kinetics, NADPH consumption at […] nm; details: 50 mM phosphate pH 7.1, 25°C
T2 construct: gene O4328_33150; FMN 1:1; dimer by gel filtration; single Cys25

OYERo2a (WT) [4] = target: T3, OYERo2a (WT) (Rhodococcus opacus, UniProt A0A1B1KA86, C25G, form not given); test: steady-state kinetics, NADPH consumption at […] nm; details: 50 mM phosphate pH 7.1, 25°C
T3 construct: gene O4328_33150; FMN 1:1; dimer by gel filtration; single Cys25

OYERo2a (WT) [5] = target: T4, OYERo2a (WT) (Rhodococcus opacus, UniProt A0A1B1KA86, C25S, form not given); test: steady-state kinetics, NADPH consumption at […] nm; details: 50 mM phosphate pH 7.1, 25°C
T4 construct: gene O4328_33150; FMN 1:1; dimer by gel filtration; single Cys25

OYERo2a (WT) [6] = target: T3, OYERo2a (WT); test: steady-state kinetics, BNAH consumption at […] nm; details: electron donor; 1 mM N-methylmaleimide, 50 mM phosphate pH 7.1, 25°C
OYERo2a (WT) [7] = target: T1, OYERo2a (WT); test: steady-state kinetics, BNAH consumption at […] nm; details: electron donor; 1 mM N-methylmaleimide, 50 mM phosphate pH 7.1, 25°C
OYERo2a (WT) [8] = target: T4, OYERo2a (WT); test: steady-state kinetics, BNAH consumption at […] nm; details: electron donor; 1 mM N-methylmaleimide, 50 mM phosphate pH 7.1, 25°C
OYERo2a (WT) [9] = target: T2, OYERo2a (WT); test: steady-state kinetics, BNAH consumption at […] nm; details: electron donor; 1 mM N-methylmaleimide, 50 mM phosphate pH 7.1, 25°C

T1 sequence (A0A1B1KA86 entry or part of it): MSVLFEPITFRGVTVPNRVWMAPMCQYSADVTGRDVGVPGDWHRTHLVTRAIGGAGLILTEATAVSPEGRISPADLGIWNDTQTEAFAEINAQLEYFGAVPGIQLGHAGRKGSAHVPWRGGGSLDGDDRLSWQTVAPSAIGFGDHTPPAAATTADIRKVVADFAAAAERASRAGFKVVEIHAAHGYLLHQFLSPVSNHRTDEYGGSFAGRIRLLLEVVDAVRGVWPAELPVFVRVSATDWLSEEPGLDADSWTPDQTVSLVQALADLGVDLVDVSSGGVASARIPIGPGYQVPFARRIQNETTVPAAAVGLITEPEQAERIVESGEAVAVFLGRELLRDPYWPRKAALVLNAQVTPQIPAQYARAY
T2 sequence (A0A1B1KA86 entry or part of it C25A, form open): as the sequence (A0A1B1KA86 entry or part of it) above, with C25A counted along it
T4 sequence (A0A1B1KA86 entry or part of it C25S, form open): as the sequence (A0A1B1KA86 entry or part of it) above, with C25S counted along it
T3 sequence (A0A1B1KA86 entry or part of it C25G, form open): as the sequence (A0A1B1KA86 entry or part of it) above, with C25G counted along it

Km (OYERo2a (WT) [2]; 180 μM NADPH, read-out: WT): 9.6 µM | Km (OYERo2a (WT) [3]; 180 μM NADPH, read-out: C25A): 9.1 µM | Km (OYERo2a (WT) [4]; 180 μM NADPH, read-out: C25G): 94.4 µM | Km (OYERo2a (WT) [5]; 180 μM NADPH, read-out: C25S): 30.4 µM
Compound: CN1C(=O)C=CC1=O [N-methylmaleimide]
relative activity (OYERo2a (WT) [1]): while the OYERo2a became almost completely inactivated

Km (OYERo2a (WT) [2]; electron donor, 1 mM N-methylmaleimide, read-out: WT / NADPH): 34.8 ± 2 µM | Km (OYERo2a (WT) [3]; electron donor, 1 mM N-methylmaleimide, read-out: C25A / NADPH): 121 ± 8.7 µM | Km (OYERo2a (WT) [4]; electron donor, 1 mM N-methylmaleimide, read-out: C25G / NADPH): 55.2 ± 2.3 µM | Km (OYERo2a (WT) [5]; electron donor, 1 mM N-methylmaleimide, read-out: C25S / NADPH): 76.9 ± 4.1 µM
Compound: NC(=O)C1=CN([C@@H]2O[C@H](COP(=O)(O)OP(=O)(O)OC[C@H]3O[C@@H](n4cnc5c(N)ncnc54)[C@H](OP(=O)(O)O)[C@@H]3O)[C@@H](O)[C@H]2O)C=CC1 [NADPH]

Km (OYERo2a (WT) [6]): 517 ± 45 µM | Km (OYERo2a (WT) [7]): 169 ± 12.4 µM | Km (OYERo2a (WT) [8]): 239 ± 24.3 µM | Km (OYERo2a (WT) [9]): 230 ± 17.8 µM
Compound: NC(=O)C1=CN(Cc2ccccc2)C=CC1 [BNAH]

Km (OYERo2a (WT) [2]; 180 μM NADPH, read-out: WT): 3500 µM | Km (OYERo2a (WT) [5]; 180 μM NADPH, read-out: C25S): 8900 µM
Compound: O=C1C=CCCC1 [2-cyclohexen-1-one]
